Experimental data published in ChEMBL document CHEMBL4130615, “Evaluation of Diarylheptanoid-Terpene Adduct Enantiomers from Alpinia officinarum for Neuroprotective Activities” (J Nat Prod, 2018).
The source made the active and inactive calls. The rule behind the calls is not given here.

Columns and labels:
[1] = test system: Cortical neurone; assay: Neuroprotective activity against MPP+-induced cell death in Sprague-Dawley rat cortical neurons assessed as increase in cell viability at 16 uM pretreated for 12 hrs followed by MPP+ challenge measured after 20 hrs by MTT assay; format: functional, cell-based
[2] = test system: Cortical neurone; assay: Neuroprotective activity against MPP+-induced cell death in Sprague-Dawley rat cortical neurons assessed as increase in cell viability at 4 to 32 uM pretreated for 12 hrs followed by MPP+ challenge measured after 20 hrs by MTT assay; format: functional, cell-based

SMILES | Activity [1] | Activity [2]
COc1cc(CC[C@H]2CC=C(CCC=C(C)C)C[C@@H]2C(=O)CCc2ccccc2)ccc1O | Active | –
COc1cc(CC[C@@H]2CC=C(CCC=C(C)C)C[C@H]2C(=O)CCc2ccccc2)ccc1O | – | inactive
COc1cc(CC/C=C/C(=O)CCc2ccccc2)ccc1O | – | inactive
C=CC(=C)CCC=C(C)C | – | inactive
